The IC50 is the concentration needed to halve the response being measured.

The values below come from article PMC5976465, “Triptolide, a HSP90 middle domain inhibitor, induces apoptosis in triple manner” (Oncotarget, 2018).

Each structure is given as a SMILES string.

Experiment [1] has as its target T1, HSP90β (Homo sapiens, UniProt P08238).
T1 construct: gene HSP90AB1; recombinant HSP90β expressed in BL21(DE3) from pET52b
The experiment is described as follows: colorimetric ATPase assay with recombinant protein; also MANT-ADP binding and CDC37 pulldown. It is filed as biochemical.

Experiment [2] addresses T2, HSP90β (Homo sapiens, UniProt P08238, C366S).
T2 construct: gene HSP90AB1; recombinant HSP90β C366S
Briefly: colorimetric ATPase assay and MANT-ADP binding assay at […] TL. It is filed as biochemical.

T1 sequence (P08238 2-724): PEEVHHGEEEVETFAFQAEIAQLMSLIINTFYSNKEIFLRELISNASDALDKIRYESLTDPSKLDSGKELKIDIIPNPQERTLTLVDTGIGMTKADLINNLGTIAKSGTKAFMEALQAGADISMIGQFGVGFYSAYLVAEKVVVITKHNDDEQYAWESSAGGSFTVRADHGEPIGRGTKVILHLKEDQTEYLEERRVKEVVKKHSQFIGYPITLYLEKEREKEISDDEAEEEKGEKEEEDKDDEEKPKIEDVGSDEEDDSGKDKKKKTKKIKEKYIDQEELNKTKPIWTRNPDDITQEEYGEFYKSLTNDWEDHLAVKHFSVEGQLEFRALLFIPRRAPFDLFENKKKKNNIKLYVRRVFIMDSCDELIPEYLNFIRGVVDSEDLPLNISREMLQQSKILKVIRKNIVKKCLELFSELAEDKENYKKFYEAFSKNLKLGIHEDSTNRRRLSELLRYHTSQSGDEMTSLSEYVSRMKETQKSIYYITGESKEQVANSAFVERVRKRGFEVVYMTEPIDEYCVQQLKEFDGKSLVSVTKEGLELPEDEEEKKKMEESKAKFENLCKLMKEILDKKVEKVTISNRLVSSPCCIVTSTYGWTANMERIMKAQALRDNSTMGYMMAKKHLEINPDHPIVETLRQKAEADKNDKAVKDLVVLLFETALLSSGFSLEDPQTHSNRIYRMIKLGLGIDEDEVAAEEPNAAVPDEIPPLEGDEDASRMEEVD
T2 sequence (P08238 2-724 C366S): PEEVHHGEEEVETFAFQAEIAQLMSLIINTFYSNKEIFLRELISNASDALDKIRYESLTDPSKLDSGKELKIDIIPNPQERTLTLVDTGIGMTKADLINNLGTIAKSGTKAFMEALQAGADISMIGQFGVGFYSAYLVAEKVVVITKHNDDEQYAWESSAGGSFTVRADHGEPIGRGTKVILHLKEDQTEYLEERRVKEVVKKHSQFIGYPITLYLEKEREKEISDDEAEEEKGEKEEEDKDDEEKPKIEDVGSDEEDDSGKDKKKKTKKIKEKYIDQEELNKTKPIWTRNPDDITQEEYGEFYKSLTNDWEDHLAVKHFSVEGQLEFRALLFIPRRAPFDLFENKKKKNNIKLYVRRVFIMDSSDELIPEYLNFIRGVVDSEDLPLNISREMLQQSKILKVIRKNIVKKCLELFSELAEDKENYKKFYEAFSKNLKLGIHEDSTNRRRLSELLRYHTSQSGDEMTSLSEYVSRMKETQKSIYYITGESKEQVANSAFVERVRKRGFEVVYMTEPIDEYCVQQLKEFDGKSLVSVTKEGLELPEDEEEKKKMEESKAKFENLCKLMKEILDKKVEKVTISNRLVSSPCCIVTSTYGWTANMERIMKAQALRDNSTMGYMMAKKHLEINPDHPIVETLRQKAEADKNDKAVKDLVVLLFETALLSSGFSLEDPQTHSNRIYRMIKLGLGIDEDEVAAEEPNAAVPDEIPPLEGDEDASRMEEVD

Consider `CC(C)[C@]12O[C@H]1[C@@H]1O[C@]13[C@]1(O[C@H]1C[C@H]1C4=C(CC[C@@]13C)C(=O)OC4)[C@@H]2O` [TL, Triptolide], for which the IC50 on HSP90β [1] was 29.9 µM. Also, the “colorimetric ATPase assay and MANT-ADP binding assay at 50 μM TL” value on HSP90β [2] was “TL exhibited a similar inhibitory effect on both HSP90β^WT and HSP90β^C366S”.
